Source: patent US20080234183A1, “Cell Penetrating Peptides” (priority 2002, published 2008)
Where no end group is shown, it is not given here. [ ]: non-standard residue; d: D form.

Columns and labels:
[1] = test system: porcine left anterior descending coronary artery; assay: Blood vessel contraction measurement
Experimental: Dissected porcine hearts (260-390 g) were transported from local slaughterhouse to the laboratory in ice-cold Krebs-Henseleit solution (119 mM NaCl, 23.8 mM NaHCO3, 3 mM KCl, 1.14 mM NaH2PO4, 1.63 mM CaCl2, and 16.5 mM glucose). Left anterior descending coronary artery and great cardiac vein were isolated. Part of each blood vessel was used immediately after Isolation for contraction assays while part of it was kept frozen in liquid nitrogen for the membrane preparation. In some experiments blood vessels in which endothelium was mechanically removed were used. The same procedure was used also for the preparation of human umbilical blood vessels; umbilical cords were obtained from Obstetric Clinic of Ljubljana Clinical Center, Slovenia.
The measurements were performed as already described (20). Rings (5 mm wide) of blood vessels were cut and mounted into 10 ml tissue chamber filled with Krebs-Henseleit solution (37° C.; pH=7.4) which was oxygenated with the mixture of ^95% O2 and 5% CO2. Initial tension of 50 mN was applied and after equilibration 30 mM KCl was added to obtain stable Isometric contraction. The presence of endothelium was verified with substance P. After washing out of KCl and substance P and after the equilibration of the system was restored, test peptide was added into the tissue chamber and blood vessel contraction was recorded.

pancreatic islets = assay: Insulin release from isolated pancreatic islets; assay type: cell-based, rat
Experimental: Effects of the peptides on insulin secretion were assessed in pancreatic islets from male Wistar rats weighing 200-250 g. Islets were isolated aseptically by colagenase digestion, and then cultured overnight at 37° C. in RPMI 1640 culture medium supplemented with 10% heat-inactivated fetal calf serum. After culturing, analysis of insulin secretion was performed by incubation at 37° C. for 1 h in batches of 3 islets, each in 300 μl of Krebs-Ringer bicarbonate buffer with 10 mM Hepes and 2 mg/ml bovine serum albumin, pH 7.4. The incubation medium contained either 3.3 or 16.7 mM glucose, with or without peptide. In one experimental series, batches of 5×10^5 Rin m5F cells were incubated under similar conditions, except that glucose was omitted from the medium. Aliquots of the incubation medium were taken for radioimmunoassay of Insulin. Insulin secretion is expressed as IU insulin/islet/h and IU insulin/5×10^5 cells/h, respectively. Statistical significance was evaluated with the Student's t-test with p<0.05 regarded as significant

[2] = test system: N2A mouse neuroblastoma cells; assay: Cellular internalisation assay of fluorescein-labelled APP and PS peptides; assay type: cell-based; settings: for cellular localisation / cellular internalisation: 10 μM, 37°; for cellular internalisation: 60 min
Experimental: Mouse neuroblastoma cells, N2A, were cultivated in Dulbecco's minimal essential medium with Glutamax-I, supplemented with 10% (v/v) fetal bovine serum, penicillin (100 U/ml) and streptomycin (100 μg/ml).
The cells used for Internalisation were seeded out on round glass coverslips in 24well plates. One day post seeding, the cells were semi confluent, and the medium was changed to serum-free medium. The fluorescein-labelled peptides were added, with a final concentration of 10 μM. After 60 min of incubation at 37°, the cells were washed 3 times with 1 ml of Hepes-Krebbs-Ringer-(HKR) buffer and fixed with 3% paraformaldehyde solution in phosphate-buffered saline solution (PBS) for 10 minutes. The cells were then washed 3 times with 1 ml of HKR-buffer, and the coverslips were mounted and sealed for microscopy studies.
The cell type used for the internalisation assays with the fluorescein'tagged peptides was N2A mouse neuroblastoma cells. This cell-line is commonly used in association with Alzheimer's disease studies, and serves as a good model cell-line for these internalisation assays where peptides derived from proteins involved in Alzheimer's disease were examined. These Internalisation assays were performed at 37° C., therefore the internalisation by endocytosis cannot be excluded.

Bowes cells = assay: Peptide uptake in attached Bowes cells, fluorescence in cell lysate; assay type: cell-based, human; settings: Fluoresceinyl peptide, 5 μM, 30 min, 37° C.
Experimental: Cells were detached with trypsin (Invitrogen, Sweden), dissolved in culture media and centrifuged (1000×g for 10 min at RT). The cells were resuspended, counted and aliqoted in HKR on Ice, 300 000 cells/tube. Abz-labelled peptide was incubated for 15 and 30 min together with the cells in suspension, on a shaking 37° C. water bath. To stop the uptake or outflow, trypsin solution was added for 3 min. The cells were spun down at 1000×g for 10 min at 4° C. The pellets were resuspended in HKR for fluorescence detection, or for the outflow samples, incubated again with peptide-free HKR. Fluorescence was read at 320/420 nm on a Spectramax Gemini XS (Molecular Devices, Calif.). The intracellular concentrations were calculated from a standard curve of Abz-labelled peptides. […] Additionally, a varianty of the same assay was applied: the cells were seeded in a 24well plate at a density of 100 000 cells/well, the day before. Cells are incubated at 5 μM peptide concentration for 30 min at 37° C. Trypsin treated, washed and lysed in hydrochloric acid. The fluorescence was measured as described for the suspension assay.
Human melanoma cells Bowes, were cultured in MEM using standard cell culturing techniques, and seeded at density of 100 000 cells/well in 24 well-plates the day before experiments were conducted.

LoVo cells = assay: Internalisation of biotinylated selCPPs, fluorescence microscopy; assay type: cell-based, human
Experimental: One aspect of the present invention thus comprises a method for screening the cellular uptake of a broad variety of CPPs in vitro, wherein cells are grown on glass cover slips to suitable, such as 50%, density, whereupon the media is changed to serum free and a blotinylated peptide solution is added. The cells are then incubated, washed, fixed and the peptides are visualised by staining with, e.g. avidin-FITC, or streptavidin-TRITC, and the cell nuclei are counterstained, e.g. with Hoechst. Images are preferably obtained with a fluorescence microscope and evaluated.
FIG. 5. Example of inactivated selCPP. Internalisation of YTA-2 (A) compared to YTA-2 ps (B) In LoVo cells, both biotynilated peptides detected by TRITC-avidin at 37° C.
The cells were grown on round glass cover slips (12 mm, GTF, Sweden) in a 24-well plate to approximately 50% confluence. The media was changed to serum free and the biotinylated peptide solutions were added. The cells were incubated for 30 min at 37 or 4° C. The cells were washed twice with PBS, fixed with 4% paraformaldehyde solution 15 min at room temperature (dark) and then permeabilised in 30 mM HEPES buffer containing 0.5% w/v Triton X-100, 3 min on Ice. Sites for unspecific binding were blocked In PBS containing 3% (w/v) bovine serum albumin, overnight at 4° C. The peptides were visualised by staining with avidin-FrTC or streptavidin-TRITC (Molecular Probes, the Netherlands). The cell nuclei were stained with Hoechst 33258 (0.5 μg/ml) for 5 min, after which the cover slips were washed 3 times with PBS and mounted in 25% glycerol in PBS. The images were obtained with a Leica DM IRE2 fluorescence microscope (Leica Microsystem., Sweden) and processed in PhotoShop 6.0 software (Adobe Systems Inc., CA) (See e.g. FIG. 38-40).

N2A cells = assay type: cell-based, mouse
[3] = test system: human Bowes melanoma cells; assay: Cellular penetration of biotin-labelled peptide; assay type: cell-based
Experimental: The medium containing serum was exchanged for a serum-free medium and water solution of the peptide was added directly into the medium to reach the concentration of 10 μM. A negative control was always used, because living cells all the time have some biotin inside. To control cells pure water instead peptide solution were added, and further handled alike all other. The cells were incubated for 1 h at 37° C. or 4° C. in 5% CO2 enriched air. The cells were washed three times with PBS, fixed and permeabilised with methanol for 10 min at −20° C., washed again with PBS and Incubated for 1 h in a 5% (w/v) solution of fat-free milk in PBS in order to decrease non-specific binding. The peptides were visualised by staining with 0.1 μM streptavidin-FITC in the same solution for 1 hour at room temperature. The cell nuclei were visualised by staining with DNA with Hoechst 33258 (0.5 μg/ml) for 5 min, thereafter the coverslips were washed 3 times with PBS and mounted in 20% glycerol in PBS. The images were obtained by Zeiss Axioplan 2 microscope (Carl Zeiss Inc., Germany).

[4] = In vivo effect of GOP on insulin release and blood glucose level; parameters: species or system Wistar rats
Experimental: Healthy male Wistar rats, weighing approximately 250 g, were fasted over-night. After an initial blood sample obtained by incision of the distal tail vein (0 min), GOP (M528, 100 nmol/kg; n=4) was injected intraperitoneally, followed by another i.p. injection of glucose (1 g/kg). Control rats (n=4) were injected with saline and glucose. Additional blood samples were taken from the tail vein after 10 and 30 min. Blood glucose levels were determined by a glucose oxidase method and plasma insulin levels by radioimmunoassay.

Sar^1-Thr^8-angiotensin II
effect on contraction induced by M511 ([1]; 45 μM antagonist): unable to affect
effect on contraction induced by angiotensin II ([1]; 45 μM antagonist): able to revert

IVIAKLRA amide (IVIAKLRA-NH2) [GOP3]
Insulin release at 16.7 mM glucose (pancreatic islets; 10 μM peptide): stim+
Insulin release at 3.3 mM glucose (pancreatic islets; 100 μM peptide): stim++
Insulin release at 16.7 mM glucose (pancreatic islets; 100 μM peptide): stim++

all-D-(IVIAKLKA) amide ([dI][dV][dI][dA][dK][dL][dK][dA]-NH2; N-terminus assumed; SMILES CC[C@@H](C)[C@@H](N)C(=O)N[C@@H](C(=O)N[C@@H](C(=O)N[C@H](C)C(=O)N[C@H](CCCCN)C(=O)N[C@H](CC(C)C)C(=O)N[C@H](CCCCN)C(=O)N[C@H](C)C(N)=O)[C@H](C)CC)C(C)C) [GOP6]
Insulin release at 16.7 mM glucose (pancreatic islets; 10 μM peptide): inh−
Insulin release at 3.3 mM glucose (pancreatic islets; 100 μM peptide): stim+
Insulin release at 16.7 mM glucose (pancreatic islets; 100 μM peptide): no

IVIAKLAA amide (IVIAKLAA-NH2) [GOP5]
Insulin release at 16.7 mM glucose (pancreatic islets; 10 μM peptide): inh−
Insulin release at 3.3 mM glucose (pancreatic islets; 100 μM peptide): no
Insulin release at 16.7 mM glucose (pancreatic islets; 100 μM peptide): no

VATKSVSVFYTRK [presenilin-1 (97-109) deletion analogue]
cellular localisation [2]: mostly localised in the cytosole
cellular internalisation [2]: showed cell-penetrating abilities

SGESLAY-YTAIAWVKAFIRKLRK (SGESLAYYTAIAWVKAFIRKLRK) [YTA-2ps]
% of added fluorescence in cell lysate (Bowes cells): 3.5%
Comment (staining/localisation) (LoVo cells): bind the plasma

MANLGYWLLALFVTMWTDVGLCKKRPKP [mouse PrPC(1-28)]
cargo delivery (N2A cells): ability to carry a cargo avidin into cells
cell-penetrating activity (N2A cells): is indeed a CPP
cellular localization (N2A cells): perinuclear localization

LRSWRVIIRNGQR [LRSW-3]
% of added fluorescence in cell lysate (Bowes cells): 1.9%

TP10 [reference compound]
% of added fluorescence in cell lysate (Bowes cells): 1.8%

IVVSKLKA amide (IVVSKLKA-NH2) [GOP16]
Insulin release at 16.7 mM glucose (pancreatic islets; 10 μM peptide): no
Insulin release at 3.3 mM glucose (pancreatic islets; 100 μM peptide): no
Insulin release at 16.7 mM glucose (pancreatic islets; 100 μM peptide): no

Transportan [reference compound]
% of added fluorescence in cell lysate (Bowes cells): 10.5%

KKAAQIRSQVMTHLRVI [APP (521-536)]
cellular localisation [2]: both in the nucleus and the membrane
cellular internalisation [2]: has cell-penetrating abilities

IATVIVITLVMLKKK [APP (712-726) WT]
aggregation on addition to the 24-well plate [2]: formed aggregates
cellular internalisation [2]: do not reveal any no uptake

VVLYKYRCYKVI [presenilin-1 (151-162)]
cellular internalisation [2]: Identical increase in fluorescence

IVIAKLKANLMCKTCRLAK-amide (IVIAKLKANLMCKTCRLAK-NH2; cysteine pairing not given here) [Peptide M569]
cellular penetration ([3]; 37° C. and 4° C.): temperature independent penetration
cellular localisation ([3]; Bowes cells, 37° C.): both cytosolic and plasma membrane localisation

IAIAKLKA amide (IAIAKLKA-NH2) [GOP4]
Insulin release at 16.7 mM glucose (pancreatic islets; 10 μM peptide): inh−−
Insulin release at 3.3 mM glucose (pancreatic islets; 100 μM peptide): inh−
Insulin release at 16.7 mM glucose (pancreatic islets; 100 μM peptide): inh−

angiotensin: angiotensin II, AT1 receptor agonist
contraction effect compared with 30 mM KCl ([1]; 1 μM): almost the same as the effect of 30 mM KCl

LRSWVISRSIRKAA [LRSW-1]
% of added fluorescence in cell lysate (Bowes cells): 1.4%

IVIAKLKA amide (IVIAKLKA-NH2) [GOP]
stimulation of insulin release (pancreatic islets; 10 μM GOP, 3.3 mM glucose, p<0.001): 5 fold
Insulin release at 16.7 mM glucose (pancreatic islets; 10 μM peptide): stim+
Insulin release at 3.3 mM glucose (pancreatic islets; 100 μM peptide): no
Insulin release at 16.7 mM glucose (pancreatic islets; 100 μM peptide): stim++
stimulation of insulin release (pancreatic islets; 1 and 10 FM GOP, 16.7 mM glucose): 4 fold
plasma insulin ([4]; 100 nmol/kg i.p. + glucose 1 g/kg, after 10 min, vs control rats p<0.05): increased significantly
blood glucose levels ([4]; 100 nmol/kg i.p. + glucose 1 g/kg, at 10 min, vs control rats p<0.02): significantly lower
insulin and glucose levels vs control rats ([4]; after 30 min): no differences

COc1ccc2c(c1)CC[C@@H]1[C@@H]2CC[C@]2(C)[C@@H](NCCCCCCN3C(=O)C=CC3=O)CC[C@@H]12 [Peptide U73122]
effect on tonus of the artery ([1]; 30 μM): did not affect tonus
effect on M511-induced contraction after posterior administration ([1]; 30 μM, 16 μM M511): did not modify blood vessel contraction
decrease of the effect of M511 ([1]; 30 μM, added 30 minutes prior to 16 μM M511): more than 50%

IAIAKLAA amide (IAIAKLAA-NH2) [GOP11]
Insulin release at 16.7 mM glucose (pancreatic islets; 10 μM peptide): inh−
Insulin release at 3.3 mM glucose (pancreatic islets; 100 μM peptide): inh−
Insulin release at 16.7 mM glucose (pancreatic islets; 100 μM peptide): inh−−

IATVIFITLVMLKKK [APP (712-726) V717F mutant]
aggregation on addition to the 24-well plate [2]: formed aggregates
cellular internalisation [2]: do not reveal any no uptake
